Data on six compounds can be found in BindingDB's records for patent US20250282782 (Genzyme, 2025).

Molecules are shown by their SMILES.

The term IC50 denotes the concentration needed to halve the response being measured. A high value points to weaker potency in that assay.

For this test, the target named is T1, Tyrosine-protein phosphatase non-receptor type 11 (Homo sapiens, UniProt Q06124).
T1 sequence (Q06124 whole entry): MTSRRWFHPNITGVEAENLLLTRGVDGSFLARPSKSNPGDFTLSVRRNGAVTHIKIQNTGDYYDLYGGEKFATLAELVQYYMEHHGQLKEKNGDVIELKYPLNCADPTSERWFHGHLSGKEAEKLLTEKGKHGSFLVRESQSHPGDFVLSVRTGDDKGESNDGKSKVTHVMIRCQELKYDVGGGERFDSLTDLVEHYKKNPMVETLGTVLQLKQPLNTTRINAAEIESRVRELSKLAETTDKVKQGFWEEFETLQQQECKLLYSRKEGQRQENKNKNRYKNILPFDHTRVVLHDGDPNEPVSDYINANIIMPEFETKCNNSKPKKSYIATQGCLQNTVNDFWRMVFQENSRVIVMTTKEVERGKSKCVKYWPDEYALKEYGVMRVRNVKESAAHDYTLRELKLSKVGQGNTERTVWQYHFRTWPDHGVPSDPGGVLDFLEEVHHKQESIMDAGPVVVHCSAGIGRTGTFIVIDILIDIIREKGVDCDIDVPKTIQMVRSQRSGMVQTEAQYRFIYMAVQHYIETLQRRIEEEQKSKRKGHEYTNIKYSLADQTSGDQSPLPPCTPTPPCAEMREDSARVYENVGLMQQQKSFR
Put plainly: Inhibition of SHP2 Phosphatase Activity Assay. The method, then: Inhibition of SHP2 phosphatase activity was evaluated using human recombinant 6His-Nterm (SEQ ID NO: 1) SHP2 full-length (Thr2-Arg593, R&D system), NsCs bi-phosphorylated activating peptide (NH2-LN(pY)AQLWHA(PEG8)LTI(pY)ATIRRF-Amide.acetate (SEQ ID NO: 2), Thermofischer Scientific) and DiFMUP as surrogate phosphatase substrate (Molecular Probes). All reactions were performed at room temperature in 384-well black polystyrene non-binding plate (Corning) with the assay buffer (50 mM HEPES-NaOH pH 7.2, 100 mM NaCl, 0.5 mM EDTA, 0.001% Brij35 including 0.02% BSA and 1 mM DTT added extemporaneously). SHP2 was pre-incubated at least 10 min with the activating peptide (0.2 nM and 100 nM, respectively). 10 μL of this mixture was added to the assay plate, that already contained 15 nL of the compound (1000-0.05 nM). After 30 min pre-incubation, the enzymatic reaction was initiated by the addition of 5 μL DiFMUP in assay buffer without BSA (20 μM). The reaction was stopped by the addition of 15 μL sodium pervanadate solution (100 μM) after 45 min incubation. The fluorescence signal was measured at excitation and emission wavelengths of 350 nm and 450 nm, respectively, using a Pherastar instrument (BMG-LabTech).
`Cc1nc(N2CCC3(CC2)Cc2ncccc2[C@H]3N)c2ccnn2c1-c1cc2c(cc1F)OCCO2` [US20250282782, Compound 58] gave a half-maximal inhibitory concentration (IC50) of 35 nM.

In the case of `Cc1nc(N2CCC3(CC2)Cc2scnc2[C@H]3N)c2ccnn2c1-c1ccccc1F` [US20250282782, Compound 66], the IC50 was determined as 22 nM.

As for `Cc1nc(N2CCC3(CC2)Cc2scnc2[C@H]3N)c2ccnn2c1-c1cnn(C)c1C` [US20250282782, Compound 67], half-maximal inhibition (IC50) was put at 115 nM.

For the compound `Cc1nc(N2CCC3(CC2)Cc2ncsc2[C@H]3N)c2ccnn2c1-c1cnn(C)c1C` [US20250282782, Compound 72], half-maximal inhibition (IC50) required 27 nM.

`Cc1cc2c(cn1)CC1(CCN(c3nc(C)c(-c4cnn(C)c4C)n4nccc34)CC1)[C@@H]2N` [US20250282782, Compound 113] showed an IC50 of 28 nM.

Compound `Cc1ccc(F)c(-c2c(C)nc(N3CCC4(CC3)Cc3ncccc3[C@H]4N)c3ccnn23)c1` [US20250282782, Compound 205] gave an IC50 of 11 nM. Against the preceding compound, the IC50 is about 2.5-fold lower.
